Consider two molecules from ChEMBL document CHEMBL1140438, “Ligand recognition by RAR and RXR receptors: binding and selectivity” (J Med Chem, 2005).

In assay [1] the target is T1, Retinoic acid receptor gamma (Homo sapiens, UniProt P13631).
T1 sequence (P13631 whole entry): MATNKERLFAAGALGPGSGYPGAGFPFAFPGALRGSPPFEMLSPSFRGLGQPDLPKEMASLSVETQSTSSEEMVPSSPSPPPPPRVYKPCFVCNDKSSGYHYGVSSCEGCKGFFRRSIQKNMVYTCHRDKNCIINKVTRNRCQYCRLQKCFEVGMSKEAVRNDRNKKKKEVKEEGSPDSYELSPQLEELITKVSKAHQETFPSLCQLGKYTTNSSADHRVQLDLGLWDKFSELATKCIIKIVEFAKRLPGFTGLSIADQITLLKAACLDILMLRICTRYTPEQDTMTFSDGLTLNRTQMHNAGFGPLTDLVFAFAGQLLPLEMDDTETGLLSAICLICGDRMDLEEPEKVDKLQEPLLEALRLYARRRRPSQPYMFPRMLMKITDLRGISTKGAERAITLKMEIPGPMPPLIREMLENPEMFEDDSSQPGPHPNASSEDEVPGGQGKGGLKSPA
The assay can be described thus: Dissociation constant for Retinoic acid receptor gamma; Not an active agonist. The class given is functional.

Assay [2] has as its target T2, Retinoic acid receptor RXR-alpha (Homo sapiens, UniProt P19793).
T2 sequence (P19793 whole entry): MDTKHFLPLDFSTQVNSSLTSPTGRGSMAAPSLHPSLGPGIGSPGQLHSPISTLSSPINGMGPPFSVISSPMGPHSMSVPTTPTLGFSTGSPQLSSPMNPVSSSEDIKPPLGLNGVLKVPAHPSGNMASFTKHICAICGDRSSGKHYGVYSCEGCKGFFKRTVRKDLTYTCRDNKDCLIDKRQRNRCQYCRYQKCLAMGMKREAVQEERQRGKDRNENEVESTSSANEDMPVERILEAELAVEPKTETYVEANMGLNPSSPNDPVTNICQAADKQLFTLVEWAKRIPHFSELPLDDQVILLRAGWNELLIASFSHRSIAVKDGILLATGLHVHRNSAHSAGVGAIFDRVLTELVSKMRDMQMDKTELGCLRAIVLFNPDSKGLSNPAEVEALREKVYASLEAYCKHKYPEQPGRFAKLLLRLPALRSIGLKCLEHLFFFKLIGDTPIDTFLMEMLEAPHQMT
As to the kind of experiment: Dissociation constant for Retinoid X receptor alpha.

The target in assay [3] is T1, Retinoic acid receptor gamma.

The Kd is the equilibrium constant for the complex coming apart. As for `Cc1cc2c(cc1-c1cc(/C=C3\SC(=O)NC3=O)ccc1OC(F)(F)F)C(C(C)C)=CCC2(C)C`, the dissociation constant (Kd) entry in assay [1] is given as “Not Active”.
For `C/C(=C\c1ccc(C(=O)O)cc1)c1cc2c(cc1C)C(C)(C)CCC2(C)C`, the figures for the equilibrium dissociation constant (Kd) in assay [2] and in assay [3] were 32 nM and 645 nM, respectively.
